The values below come from ChEMBL document CHEMBL1152560, “Substituted 2-arylbenzothiazoles as kinase inhibitors: hit-to-lead optimization” (Bioorg Med Chem, 2009).

As a reminder, the residual activity is the signal under treatment as a percentage of the control signal.

For test [1], the target named is Ribosomal protein S6 kinase beta-2 (Homo sapiens) (UniProt Q9UBS0). In words: Residual activity of S6Kbeta at 10 uM by microplate scintillation counting.
For test [2], the target named is T1, Inhibitor of nuclear factor kappa-B kinase subunit epsilon (Homo sapiens) (UniProt Q14164).
T1 sequence (whole entry): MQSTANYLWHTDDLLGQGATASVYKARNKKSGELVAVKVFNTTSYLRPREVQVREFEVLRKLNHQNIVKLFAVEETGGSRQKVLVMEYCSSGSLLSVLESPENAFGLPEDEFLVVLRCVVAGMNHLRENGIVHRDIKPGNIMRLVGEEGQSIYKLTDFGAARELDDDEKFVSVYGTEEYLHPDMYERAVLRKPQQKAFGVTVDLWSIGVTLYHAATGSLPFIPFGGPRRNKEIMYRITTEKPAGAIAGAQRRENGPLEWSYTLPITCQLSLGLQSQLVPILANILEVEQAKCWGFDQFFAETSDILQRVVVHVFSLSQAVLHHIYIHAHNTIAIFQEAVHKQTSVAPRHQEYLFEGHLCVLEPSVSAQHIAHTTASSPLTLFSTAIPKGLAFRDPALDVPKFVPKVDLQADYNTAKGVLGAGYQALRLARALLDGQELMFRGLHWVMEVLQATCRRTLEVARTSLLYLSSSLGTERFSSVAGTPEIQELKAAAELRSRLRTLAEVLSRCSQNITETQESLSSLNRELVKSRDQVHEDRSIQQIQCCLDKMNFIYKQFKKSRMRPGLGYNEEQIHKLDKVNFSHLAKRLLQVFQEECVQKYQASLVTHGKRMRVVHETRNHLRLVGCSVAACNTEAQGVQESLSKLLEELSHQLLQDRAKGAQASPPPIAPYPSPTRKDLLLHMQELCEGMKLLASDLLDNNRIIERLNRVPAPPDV
In words: Residual activity of IKKepsilon at 0.1 uM by microplate scintillation counting.

The target in test [3] is T2, Serine/threonine-protein kinase D3 (Homo sapiens) (UniProt O94806).
T2 sequence (whole entry): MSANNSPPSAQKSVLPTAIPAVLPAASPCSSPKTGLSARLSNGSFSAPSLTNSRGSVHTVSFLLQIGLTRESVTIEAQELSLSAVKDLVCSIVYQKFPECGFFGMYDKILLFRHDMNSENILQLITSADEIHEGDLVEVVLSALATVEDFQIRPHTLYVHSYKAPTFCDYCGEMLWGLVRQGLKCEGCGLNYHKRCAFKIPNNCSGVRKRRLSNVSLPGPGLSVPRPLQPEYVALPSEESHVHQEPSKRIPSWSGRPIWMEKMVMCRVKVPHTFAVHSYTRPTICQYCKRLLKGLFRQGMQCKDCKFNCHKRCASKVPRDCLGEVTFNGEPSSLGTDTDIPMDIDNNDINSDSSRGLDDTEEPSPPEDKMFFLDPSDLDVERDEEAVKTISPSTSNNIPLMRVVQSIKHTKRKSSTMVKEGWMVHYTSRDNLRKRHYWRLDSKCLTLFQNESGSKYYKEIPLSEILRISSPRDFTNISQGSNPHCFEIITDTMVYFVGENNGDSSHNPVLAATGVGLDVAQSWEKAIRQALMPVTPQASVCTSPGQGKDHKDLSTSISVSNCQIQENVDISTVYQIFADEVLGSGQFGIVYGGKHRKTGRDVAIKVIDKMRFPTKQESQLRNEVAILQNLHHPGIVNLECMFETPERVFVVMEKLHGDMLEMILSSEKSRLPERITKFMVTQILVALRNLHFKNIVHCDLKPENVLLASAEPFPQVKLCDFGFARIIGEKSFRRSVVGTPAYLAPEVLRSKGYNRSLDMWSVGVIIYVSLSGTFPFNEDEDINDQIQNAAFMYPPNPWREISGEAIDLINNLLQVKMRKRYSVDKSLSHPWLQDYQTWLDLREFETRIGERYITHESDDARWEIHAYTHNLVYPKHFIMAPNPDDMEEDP
Kind of test: Residual activity of PKCnu at 10 uM by microplate scintillation counting.

Test [4] addresses T3, Serine/threonine-protein kinase TAO2 (Homo sapiens) (UniProt Q9UL54).
T3 sequence (whole entry): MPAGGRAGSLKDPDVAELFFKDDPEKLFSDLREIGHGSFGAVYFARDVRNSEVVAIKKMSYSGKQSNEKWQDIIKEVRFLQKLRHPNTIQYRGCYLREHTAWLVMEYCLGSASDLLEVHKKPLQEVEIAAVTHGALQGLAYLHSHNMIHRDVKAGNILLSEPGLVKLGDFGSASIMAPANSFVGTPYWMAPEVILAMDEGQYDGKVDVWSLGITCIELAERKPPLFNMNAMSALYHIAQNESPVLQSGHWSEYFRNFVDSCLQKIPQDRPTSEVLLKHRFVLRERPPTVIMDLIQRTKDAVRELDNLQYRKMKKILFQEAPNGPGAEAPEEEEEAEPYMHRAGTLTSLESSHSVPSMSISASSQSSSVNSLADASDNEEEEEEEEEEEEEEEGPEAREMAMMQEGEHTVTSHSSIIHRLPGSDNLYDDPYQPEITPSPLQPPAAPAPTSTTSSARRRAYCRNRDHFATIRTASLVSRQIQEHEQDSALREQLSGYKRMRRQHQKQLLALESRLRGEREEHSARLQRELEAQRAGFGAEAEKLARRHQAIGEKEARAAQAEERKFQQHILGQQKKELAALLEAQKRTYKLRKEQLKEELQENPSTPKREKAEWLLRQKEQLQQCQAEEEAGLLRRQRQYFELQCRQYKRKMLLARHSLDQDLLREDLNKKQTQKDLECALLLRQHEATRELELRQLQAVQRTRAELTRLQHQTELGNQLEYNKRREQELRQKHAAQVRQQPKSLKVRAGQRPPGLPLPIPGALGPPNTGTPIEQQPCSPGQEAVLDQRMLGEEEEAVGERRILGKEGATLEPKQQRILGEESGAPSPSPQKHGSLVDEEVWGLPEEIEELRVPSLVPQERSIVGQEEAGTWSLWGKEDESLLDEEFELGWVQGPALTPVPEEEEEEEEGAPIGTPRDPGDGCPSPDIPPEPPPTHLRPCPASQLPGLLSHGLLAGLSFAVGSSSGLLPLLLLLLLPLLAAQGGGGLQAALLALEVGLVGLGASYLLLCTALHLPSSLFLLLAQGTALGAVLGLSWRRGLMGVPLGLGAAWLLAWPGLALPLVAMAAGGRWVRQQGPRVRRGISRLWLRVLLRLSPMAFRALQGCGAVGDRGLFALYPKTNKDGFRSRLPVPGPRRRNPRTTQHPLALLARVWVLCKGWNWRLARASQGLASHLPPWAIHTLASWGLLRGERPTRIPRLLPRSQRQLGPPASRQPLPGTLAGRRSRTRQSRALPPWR
In words: Residual activity of TAOK2 at 0.1 uM by microplate scintillation counting.

Chain of Ribosomal protein S6 kinase beta-2 (Homo sapiens) (Q9UBS0 whole entry): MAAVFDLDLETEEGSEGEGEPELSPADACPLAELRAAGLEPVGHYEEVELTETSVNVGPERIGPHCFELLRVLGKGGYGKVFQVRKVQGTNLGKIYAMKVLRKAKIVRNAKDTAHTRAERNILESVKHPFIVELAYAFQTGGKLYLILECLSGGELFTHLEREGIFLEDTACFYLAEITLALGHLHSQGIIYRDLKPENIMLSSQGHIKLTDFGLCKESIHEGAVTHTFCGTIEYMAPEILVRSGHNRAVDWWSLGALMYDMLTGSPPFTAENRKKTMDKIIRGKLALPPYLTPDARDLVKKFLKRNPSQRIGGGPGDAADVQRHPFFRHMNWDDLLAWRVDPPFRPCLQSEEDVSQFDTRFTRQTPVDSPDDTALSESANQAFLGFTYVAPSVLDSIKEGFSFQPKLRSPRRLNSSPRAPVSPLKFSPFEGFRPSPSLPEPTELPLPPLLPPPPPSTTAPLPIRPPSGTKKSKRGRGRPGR

For the compound `COc1cc2c(Oc3ccc(-c4nc5ccccc5s4)cc3)ncnc2cc1OCCCN1CCN(C)CC1`, the residual activity in test [1] was 75%; in test [2], 91%; in test [3], 52%; in test [4], 92%.

`COc1cc2c(Oc3ccc(-c4nc5ccccc5s4)cc3)ncnc2cc1OCCCN1CCCC1`: the residual activity was 85% in test [1], 92% in test [2], 82% in test [3] and 102% in test [4].

On to `COc1cc2c(Oc3ccc(-c4nc5ccccc5s4)cc3F)ncnc2cc1OCCCN1CCN(C)CC1`, for which the residual activity in test [1] stood at 77%; in test [2] it was 87%; in test [3], 50%; in test [4], 108%.
